From patent US10300004B2, “Cosmetic composition for preventing or ameliorating skin damage caused by ultraviolet light” (CUSKIN CO., LTD, priority 2015, dated 2019)

Tests used:
p53 = p53 protein levels in HaCaT cells after UVB; assay type: cell-based, Human; conditions: FIG. 4C
HaCaT cells [1] = test: MTT proliferation assay in HaCaT cells; assay type: cell-based, Human; conditions: dose-dependent; p<0.05; FIG. 4A
Experimental: (§1) Human dermal fibroblasts (HDFs) and immortalized keratinocyte cell line (HaCaT) were cultured using DMEM (low, high glucose, Hyclone, Thermo Scientific, Logan, Utah, USA) supplemented with 10% FBS (Gibco, Invitrogen, Carlsbad, Calif., USA), 1% penicillin, and streptomycin (Gibco) at 37° C. with 5% CO2 in a humidified atmosphere (Kim W S et al., (2009) Journal of dermatological science 53: 96-102). Said cultures were performed by exchanging with fresh media every two days.
(§2) HDFs (3×10^4 cells/well) and HaCaT (4×10^4 cells/well) were seeded in 6-well plates. Cells were treated with various concentrations of MVE. Cells were then incubated for 48 hours and the MTT assay was performed. MTT solution (5 mg/ml in phosphate buffered saline) was added to each well at 1/20 of the media volume, incubated for 2 hours, and then supernatant was removed. Dimethyl sulfoxide (DMSO) was then added to dissolve formazan crystals, and the absorbance was measured at 595 nm using an ELISA reader (TECAN, Grodig, Austria).

[2] = test system: Human dermal fibroblasts (HDFs); test: MTT viability of dermal fibroblasts under UVB irradiation; assay type: cell-based
Experimental: as §1, §2

collagen type I = test: RT-PCR of collagen mRNA in dermal fibroblasts; assay type: cell-based, Human
Experimental: (§3) Total RNA of HDFs and HaCaT was extracted with Trizol reagent followed by reverse transcription to cDNA. The following oligonucleotides were used as primers: collagen type I [5′-[…]-3′ (SEQ ID NO: 1) and 5′-[…]-3′ (SEQ ID NO: 2)], MMP-1 [5′-[…]-3′ (SEQ ID NO: 3) and 5′-[…]-3′ (SEQ ID NO: 4)], and control GAPDH [5′-[…]-3′ (SEQ ID NO: 5) and 5′-[…]-3′ (SEQ ID NO: 6)]. PCR was carried out in a total volume of 30 μl for PCR amplification of cDNA that was reverse-transcribed from the total RNA. After initial denaturation at 95° C. for 5 minutes, amplification was performed in 35 cycles for 30 seconds at 95° C., 20 seconds at 54° C., and 30 seconds at 72° C. This was followed by a final extension at 72° C. for another 10 minutes. GAPDH mRNA level was used for sample standardization.

HaCaT cells [3] = test: MTT viability of HaCaT cells under UVB; assay type: cell-based, Human; conditions: p<0.01, FIG. 4B
Experimental: as §1, §2

[4] = test system: matrix metalloproteinase 1 (MMP1); test: Western blot of MMP1 protein in fibroblasts; assay type: cell-based, Human; conditions: FIG. 2C
Experimental: (§4) Cells (2×10^5 cells/ml) were seeded in a 60 mm dish and cultured to 80% confluence. Cells were treated with MVE. Cells were then lysed with 1×RIPA buffer (50 mM Tris-HCl, 0.15 M NaCl, 1 mM EDTA, 1% Triton-X100, pH 7.4, 1% SDS, 50 mM NaF, 1 mM Na3VO4, 5 mM Dithiothreitol, 1 mg/ml Leupeptin, and 1 mM phenylmethylsulfonyl fluoride). Sample protein (40 μg) was separated in 10-12% SDS-polyacrylamide gels by electrophoresis. Proteins were transferred to PVDF membranes and incubated with antibodies to collagen (1:1000 rabbit source, Santa Cruz Biotechnology, Santa Cruz, Calif., USA) and matrix metalloproteinase 1 (MMP1, 1:1000 rabbit source, Santa Cruz Biotechnology). Membranes were then washed and incubated with horseradish peroxidase-conjugated anti-rabbit IgG antibody (Santa Cruz Biotechnology). Blots were reacted with western reagent (ECL; Millipore Billerica, Ann Arbor, Mass., USA) and exposed to X-ray film.

[5] = test system: matrix metalloproteinase 1 (MMP1); test: RT-PCR of MMP1 mRNA in dermal fibroblasts; assay type: cell-based, Human
Experimental: as §3

HaCaT cells [6] = test: Cellular ROS generation assay (DCF-DA) in HaCaT cells; assay type: cell-based, Human; conditions: UVB, MVE 1000 nM, p<0.01, FIG. 5a
Experimental: (§5) Cellular ROS generation was measured using 2′,7′-dichlorodihydrofluorescein diacetate (DCF-DA, Molecular Probes, Eugene, Oreg., USA), as described previously (Hye Kim J et al., Stem cells 33: 542-556). Similarly, mitochondrial ROS (mtROS) generation was measured using Mito-Sox (Molecular Probes). Cells were seeded in 6-well plates in 0.2% FBS and cultured overnight. […] Each well was imaged every 10 minutes for 40 minutes under standard incubation conditions using an IncuCyte™ ZOOM microscope placed inside an incubator. Image-based analysis of fluorescence intensity was carried out using IncuCyte™ software (Essen Bioscience, MI, USA).

fibroblasts [7] = test: Cellular ROS generation assay (DCF-DA) in fibroblasts; assay type: cell-based, Human; conditions: UVB, MVE 1000 nM, p<0.01, FIG. 3a
Experimental: as §5

collagen = test: Western blot of collagen protein in fibroblasts; assay type: cell-based, Human; conditions: FIG. 2C
Experimental: as §4

HaCaT cells [8] = test: Mitochondrial ROS generation assay (Mito-Sox) in HaCaT cells; assay type: cell-based, Human; conditions: UVB, MVE 1000 nM, p<0.01, FIG. 5b
Experimental: as §5

fibroblasts [9] = test: Mitochondrial ROS generation assay (Mito-Sox) in fibroblasts; assay type: cell-based, Human; conditions: UVB, MVE 1000 nM, p<0.01, FIG. 3b
Experimental: as §5

[10] = test system: Human dermal fibroblasts (HDFs); test: MTT proliferation assay in dermal fibroblasts; assay type: cell-based; conditions: 100~1000 nM; p<0.01; FIG. 1B
Experimental: as §1, §2

HaCaT keratinocytes = conditions: Shibata A et al. 2010; cited from earlier work
human epidermis = conditions: Placzek M et al. 2005; cited from earlier work
[11] = dermal fibroblasts, no UVB, FIG. 2A

With Cc1c(C)c2c(c(C)c1O)CCC(C)(CC[P+](c1ccccc1)(c1ccccc1)c1ccccc1)O2.[Br-] (centres unmarked) [MVE] the “UVB-induced p53 protein levels” value (p53) was “reduced”, the “proliferation of HaCaT cells” value (HaCaT cells [1]) was “significantly increased” and the “protection of fibroblasts from UVB” value ([2]; 10~1000 nM, p<0.01, FIG. 1C) was “protected”. For the same compound, the “fibroblast survival (UVB irradiation), low concentrations” value ([2]; UVB 200 mJ, 0.1 and 1 μM, concentration-dependent, FIG. 1A) was “increased”, the “fibroblast survival (UVB irradiation), high concentrations” value ([2]; UVB 200 mJ, 10 to 100 μM, concentration-dependent, FIG. 1A) was “decreased” and the “collagen mRNA expression” value (collagen type I; [11]) was “increased”. The “mRNA level of collagen reduced by UVB irradiation” value (collagen type I; fibroblasts with UVB, FIG. 2B) was “attenuated”, the UVB-reduced cell viability (HaCaT cells [3]) was “increased” and the “protein level of MMP1” value [4] was “altered”. For the same compound, the “MMP1 mRNA expression” value [5, 11] was “down-regulated”, the “mRNA level of MMP1 increased by UVB” value ([5]; fibroblasts with UVB, FIG. 2B) was “reduced” and the “cytosolic ROS level: fluorescent signal intensity of DCF-DA” value (HaCaT cells [6]) was “attenuated”. For the same compound, the “cytosolic ROS level: fluorescent signal intensity of DCF-DA” value (fibroblasts [7]) was “attenuated”, the “protein level of collagen” value (collagen) was “altered” and the “mitochondrial ROS production: signal intensity of mito-Sox” value (HaCaT cells [8]) was “reduced”. For the same compound, the “mitochondria ROS production: signal intensity of mito-Sox” value (fibroblasts [9]) was “reduced” and the fibroblast proliferation [10] was “increased”.
With vitamin E [reference compound] the “survival of dermal fibroblasts from UVB irradiation” value ([2]; UVB 200 mJ, 0.1 to 100 μM, FIG. 1A) was “slightly increased”.
In the case of CC(C)=CCC/C(C)=C/CC/C(C)=C/CC[C@]1(C)CCc2cc(O)c(C)c(C)c2O1 [γ-tocotrienol], the “protection from UVB induced inflammation” value (HaCaT keratinocytes) is listed as “protected”.
In the case of Cc1c(C)c2c(c(C)c1O)CC[C@@](C)(CCC[C@H](C)CCC[C@H](C)CCCC(C)C)O2 [D-alpha-tocopherol], the “UVB-induced DNA damage” value (human epidermis) is given as “prevented”.
